Measurements: patent US6380182B1, “Methods and compositions controlling biofouling using sulfamic acids” (priority 1997, dated 2002)
Values joined by “and” are separate entries in the source; they are usually repeats but may differ in a detail not shown here. Equal entries are not always repeated.

How the values were obtained:
Format in all cases: cell-based
[1] = system: Bacteria of the genera Bacillus, Flavobacterium, and Pseudomonas; test: Bioreactor bacterial adhesion test, quantitative inhibition of bacterial adhesion (IBA) by crystal violet absorbance at 586 nm; conditions: 100 ppm, acetone solvent, 168 h incubation at 26-28 C, 50% or greater considered effective
Protocol: The test method, construction of bioreactors, bacterial growth medium, preparation of bacterial inocula, and biofilm production/chemical testing is the same as outlined in EXAMPLE 3. After 168 h (1 week) of incubation at 26-28 C, the slides were removed from the bioreactors and were positioned vertically to […] using a staining procedure. The slides were briefly flamed in order to fix the cells to the surface, and then transferred for one minute to a container of Gram Crystal Violet (DIFCO Laboratories, Detroit, Mich.). The slides were gently rinsed under running tap water, carefully blotted, and again allowed to air dry overnight The degree of bacterial adhesion was then determined by a quantitative method of evaluation. The pair of glass slides and the pair of stainless steel slides corresponding to each treatment were placed each in Petri plate with 10 mL ethanol (technical) to remove the crystal violet staining the cells attached to the slides. A 1 mL aliquot of the crystal violet ethanol solution obtained in each Petri plate was transferred each to a test tube with 9 mL of deionized sterile water ( 1/10 dilution). The blank for calibration of the optical instrument used for the evaluation was a solution of 1 mL of ethanol in 9 mL of deionized sterile water. The absorbance (ABS) of each solution was determined using a spectrophotometer (Spectronic 21, Bausch and Lomb) at a wavelength of 586 nm. The inhibition of bacterial adhesion (IBA) was calculated: IBA=100 (ABS control−ABS treatment)\ABS control 90 or >% IBA=essentially no bacterial adhesion 89-70% IBA=scant 69-50% IBA=slight 30% IBA=moderate 29-<29% IBA=moderate Compounds which receive 50% IBA or greater were considered effective to prevent the adhesion of bacteria to the submerged slides.

E. Aerogenes = test: Minimum inhibitory concentration, 18 hour Basal Salts test; conditions: for MIC pH8: pH 8; for MIC pH6: pH 6
[2] = system: Bacteria of the genera Bacillus, Flavobacterium, and Pseudomonas; test: Bioreactor bacterial adhesion test, visual biofilm scoring of crystal violet stained slides; set-up: key: 0=essentially none; 1=scant; 2=slight; 3=moderate; 4=heavy; conditions: Glass slides; 100 ppm; acetone solvent; 3 days; average of four replicate slides; 0-2 considered effective
Excerpt: Test Method: The following method effectively defines the ability of a chemical compound to inhibit bacterial adhesion, or attack the formation of existing attached microorganisms, on various types of surfaces. As an overview, bioreactors were constructed in which approximately 1 in.×3 in. slides (glass or stainless steel) were fixed to the edge of the bioreactor. The lower ends (approx. 2 in.) of the slides dipped into a bacterial growth medium (pH 7) within the bioreactor which contained a known concentration of the test chemical. Following inoculation with known bacterial species, the test solutions were stirred continuously for 3 days. Unless otherwise indicated in the results below, the medium within the bioreactor was turbid by the end of three days. […] A staining procedure was then used on the slides in order to determine the amount of bacteria attached to the surfaces of the slides.
Construction of Bioreactors: The bioreactors comprised a 400 ml glass beaker over which a lid (cover from a standard 9 cm diameter glass petri dish) was placed. With the lid removed, slides of the material of choice were taped at one end with masking tape and suspended inside the bioreactor from the top edge of the beaker. This allows the slides to be submerged within the test medium. Typically, four slides (replicates) were uniformly spaced around the bioreactor. The score presented below are the average of the four replicates. A magnetic stirring bar was placed in the bottom of the unit, the lid positioned, and the bioreactor autoclaved. Two different types of material were used as slides, stainless steel as a metal and glass as a hydrophillic surface.
Bacterial Growth Medium: The liquid medium utilized in the bioreactors was described previously by Delaquis, et al., “Detachment Of Pseudomonas fluorescens From Biofilms On Glass Surfaces In Response To Nutrient Stress”, Microbial Ecology 18:199-210, 1989. The composition of the medium was:
The medium was autoclaved and then allowed to cool. If a sediment formed in the autoclaved medium, the medium was resuspended by shaking before use.
Preparation of Bacterial Inocula: Bacteria of the genera Bacillus, Flavobacterium, and Pseudomonas were isolated from a paper mill slime deposit and maintained in continuous culture. The test organisms were separately streaked onto plate count agar and incubated at 30° C. for 24 hours. With a sterile cotton swab, portions of the colonies were removed and suspended in sterile water. […]
Biofilm Production/Chemical Testing: To four separate bioreactors was added 200 ml of the sterile medium prepared above. Chemicals to be evaluated as biodispersants were first prepared as a stock solution (40 mg/2 ml) using either water or a 9:1 acetone: methanol mixture (ac/MeOH) as a solvent. […]

| Compound | Score (% IBA) 168 h Incub. ([1]; Glass slides) | Score (% IBA) 168 h Incub. ([1]; SS (stainless steel) slides) | MIC pH8 (E. Aerogenes) | MIC pH6 (E. Aerogenes) | Score (biofilm score) [2] |
| --- | --- | --- | --- | --- | --- |
| CCCCCCCCNS(=O)(=O)O [c, octyl sulfamic acid] | 41 % IBA | 54 % IBA | >100 |  |  |
| CCCCCCCCCCCCCCCCCCNS(=O)(=O)O [g, octadecyl sulfamic acid] |  |  | >500 |  |  |
| O=S(=O)(O)N(C1CCCCC1)C1CCCCC1 [h, dicyclohexyl sulfamic acid] | 44 % IBA | 57 % IBA | >100 | >500 |  |
| CCCCCNS(=O)(=O)O [b, amyl sulfamic acid] | 65 % IBA | 14 % IBA | >500 |  |  |
| CCCCCCCCN(CCCCCCCC)S(=O)(=O)O [d, dioctyl sulfamic acid] |  |  | >100 |  | 3 |
| CCCCCCCCCCCCN(CCCCCCCCCCCC)S(=O)(=O)O [f, didodecyl sulfamic acid] | 27 % IBA | 15 % IBA |  |  | 2.00 |
| piperidinyl sulfamic acid [j] | 40 % IBA | 68 % IBA | >100 | >100 | 2.5 |
| CCCCCCCCCCCCNS(=O)(=O)O [e, dodecyl sulfamic acid] | 82 % IBA and 72 % IBA | 78 % IBA and 70 % IBA |  |  | 3.8 |
| CCCCNS(=O)(=O)O [a, butyl sulfamic acid] | 0 % IBA | 66 % IBA | >500 |  |  |
| O=S(=O)(O)NN1CCOCC1 [i, morpholino sulfamic acid] | 47 % IBA | 39 % IBA | >100 | >500 |  |
